Measured values from US12209102B2, “Heterocyclic compounds and uses thereof” (Kumquat Biosciences Inc., priority 2022, dated 2025).

Experiments:
Type in all cases: biochemical
[1] = molecular target: T1, K-Ras G12D (Homo sapiens, UniProt P01116, G12D); test: HTRF resonance energy transfer assay, K-Ras G12D / SOS1 interaction; settings: HTRF assay of Example 5; read-out: IC50 against K-Ras G12D
T1 construct: made in house; host or cells: E. coli BL21 (DE3)
Excerpt: (§1) This assay can be also used to assess a selective inhibition or reduction of signaling output of a mutant Ras protein relative to a wildtype, or relative to a different mutant Ras protein. For example, the equilibrium interaction of wildtype Kras or K-Ras mutant (e.g., wildtype or a mutant thereof) with SOS1 (e.g., hSOS1) can be assessed as a proxy or an indication for a subject compound's ability to bind and inhibit Ras protein. HTRF assay detects from (i) a fluorescence resonance energy transfer (FRET) donor (e.g., antiGST-Europium) that is bound to GST-tagged K-Ras mutant to (ii) a FRET acceptor (e.g., anti-6His-XL665) bound to a His-tagged hSOS1.
(§2) The assay buffer can contain˜5 mM HEPES pH 7.4, ˜150 mM NaCl, ˜ 1 mM DTT, 0.05% BSA and 0.0025%(v/v) Igepal. A Ras working solution is prepared in an assay buffer containing typically a suitable amount of the protein construct (e.g., GST-tagged K-Ras mutant) and the FRET donor (e.g., antiGST-Eu(K) from Cisbio, France). A SOS1 working solution is prepared in an assay buffer containing suitable amount of the protein construct (e.g., His-hSOS1) and the FRET acceptor (e.g., anti-6His-XL665 from Cisbio, France). A suitable amount of the protein construct will depend on the range of activity or range of IC50 values being detected or under investigation. For detecting IC50 within a range of 500 nM, the protein constructs of the same range of molarity can be utilized.
(§3) A fixed volume of DMSO with or without test compound is transferred into a 384-well plate. Ras working solution is added to all wells of the test plate. SOS1 working solution is added to all wells except for those that are subsequently filled the inhibitor control solution. Upon incubation for about 10 minutes or longer, the fluorescence is measured with a M1000Pro plate reader (Tecan) using HTRF detection (excitation 337 nm, emission 1: 620 nm, emission 2: 665 nm). Compounds are tested in duplicates at different concentrations (for example, 10 μM, 2.5 μM, 0.63 μM, 0.16 μM, 0.04 μM, 0.01 μM test compound). The ratiometric data (i.e., emission 2 divided by emission 1) is used to calculate IC50 values against Ras using GraphPad Prism (GraphPad software). Following this general procedure, samples were tested with or without a subject compound disclosed herein including compounds exemplified in Table 1 to assess their abilities to inhibit a K-Ras mutant relative to another mutant or WT. Signaling output measured in terms of IC50 values can be obtained, a ratio of IC50 against one mutant relative to another mutant can be calculated. For instance, a selective reduction of K-Ras G12D signaling output can be evidenced by a ratio greater than one. In particular, a selective reduction of K-Ras G12D signaling relative to K-Ras WT signaling is evidenced as the ratio of IC50 (against K-Ras WT) to IC50 (against K-Ras G12D) is greater than 1.

[2] = molecular target: T2, K-Ras G12S (Homo sapiens, UniProt P01116, G12S); test: HTRF resonance energy transfer assay, K-Ras G12S / SOS1 interaction; settings: HTRF assay of Example 5; read-out: IC50 against K-Ras G12S
T2 construct: made in house; host or cells: E. coli BL21 (DE3)
Excerpt: as §1, §2, §3

[3] = molecular target: T3, K-Ras G12V (Homo sapiens, UniProt P01116, G12V); test: HTRF resonance energy transfer assay, K-Ras G12V / SOS1 interaction; settings: HTRF assay of Example 5; read-out: IC50 against K-Ras G12V
T3 construct: made in house; host or cells: E. coli BL21 (DE3)
Excerpt: as §1, §2, §3

[4] = molecular target: T4, K-Ras WT (Homo sapiens, UniProt P01116); test: HTRF resonance energy transfer assay, K-Ras WT / SOS1 interaction; settings: HTRF assay of Example 5; read-out: IC50 against K-Ras WT
T4 construct: made in house; host or cells: E. coli BL21 (DE3)
Excerpt: as §1, §2, §3

Measured: IC50

T4 sequence (P01116 1-188 isoform P01116-2): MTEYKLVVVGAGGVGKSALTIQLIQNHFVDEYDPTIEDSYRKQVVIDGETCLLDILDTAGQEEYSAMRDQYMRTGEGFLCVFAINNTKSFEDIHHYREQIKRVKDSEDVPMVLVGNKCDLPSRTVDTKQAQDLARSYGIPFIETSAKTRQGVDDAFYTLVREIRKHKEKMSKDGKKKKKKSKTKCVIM
T1 sequence (P01116 1-188 isoform P01116-2 G12D): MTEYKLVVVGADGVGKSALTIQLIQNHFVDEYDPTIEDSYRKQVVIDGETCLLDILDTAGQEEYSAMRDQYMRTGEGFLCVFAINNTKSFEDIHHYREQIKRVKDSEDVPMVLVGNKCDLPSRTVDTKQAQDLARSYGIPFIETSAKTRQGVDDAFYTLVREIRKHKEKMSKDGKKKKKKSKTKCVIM
T2 sequence (P01116 1-188 isoform P01116-2 G12S): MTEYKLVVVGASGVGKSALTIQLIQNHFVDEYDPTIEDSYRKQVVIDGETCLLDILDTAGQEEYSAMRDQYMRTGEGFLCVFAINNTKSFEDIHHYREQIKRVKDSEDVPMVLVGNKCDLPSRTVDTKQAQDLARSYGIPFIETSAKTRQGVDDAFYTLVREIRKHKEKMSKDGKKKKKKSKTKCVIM
T3 sequence (P01116 1-188 isoform P01116-2 G12V): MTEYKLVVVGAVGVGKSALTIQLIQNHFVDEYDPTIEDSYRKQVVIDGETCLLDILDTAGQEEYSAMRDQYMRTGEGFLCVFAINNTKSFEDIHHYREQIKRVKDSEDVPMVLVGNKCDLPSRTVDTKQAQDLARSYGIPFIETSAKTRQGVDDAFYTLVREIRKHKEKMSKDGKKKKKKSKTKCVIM

C=C[C@H]1COc2c(Cl)c(-c3ccc(F)c4sc(N)c(C#N)c34)c(F)c3nc(OC[C@@]45CCCN4C[C@H](F)C5)nc(c23)N1CCC(F)F (single isomer, unassigned) [Compound 906]
< 100 nM: all assays above

C=C[C@H]1COc2c(Cl)c(-c3ccc(F)c4sc(N)c(C#N)c34)c(F)c3nc(OC[C@@]45CCCN4C[C@H](F)C5)nc(c23)N1CCOC (single isomer, unassigned) [Compound 917]
< 100 nM: all assays above

N#Cc1c(N)sc2c(F)ccc(-c3c(Cl)c4c5c(nc(OC[C@@]67CCCN6C[C@H](F)C7)nc5c3F)N(C3CCN(C5CC5)C3)CCO4)c12 (stereo partly drawn) [Compound 631, 2-amino-4-(8-chloro-4-(1-cyclopropylpyrrolidin-3-yl)-10-fluoro-2-(((2R,7aS)-2-fluorotetrahydro-1H-pyrrolizin-7a(5H)-yl)methoxy)-5,6-dihydro-4H-[1,4]oxazepino[5,6,7-de]quinazolin-9-yl)-7-fluorobenzo[b]thiophene-3-carbonitrile]
< 100 nM: all assays above

N#Cc1c(N)sc2c(F)ccc(-c3c(Cl)c4c5c(nc(OC[C@@]67CCCN6C[C@H](F)C7)nc5c3F)N(C3CC35CCNC5)CCO4)c12 (stereo partly drawn) [Compound 735, 2-amino-4-(8-chloro-10-fluoro-2-(((2R,7aS)-2-fluorotetrahydro-1H-pyrrolizin-7a(5H)-yl)methoxy)-4-(5-azaspiro[2.4]heptan-1-yl)-5,6-dihydro-4H-[1,4]oxazepino[5,6,7-de]quinazolin-9-yl)-7-fluorobenzo[b]thiophene-3-carbonitrile]
< 100 nM: all assays above

N#Cc1c(N)sc2c(F)ccc(-c3c(Cl)c4c5c(nc(OC[C@@]67CCCN6C[C@H](F)C7)nc5c3F)N(CC3CC3C#N)CCO4)c12 (stereo partly drawn) [Compound 738, 2-amino-4-(8-chloro-4-((2-cyanocyclopropyl)methyl)-10-fluoro-2-(((2R,7aS)-2-fluorotetrahydro-1H-pyrrolizin-7a(5H)-yl)methoxy)-5,6-dihydro-4H-[1,4]oxazepino[5,6,7-de]quinazolin-9-yl)-7-fluorobenzo[b]thiophene-3-carbonitrile]
< 100 nM: all assays above

N#Cc1c(N)sc2c(F)ccc(-c3c(Cl)c4c5c(nc(OC[C@@]67CCCN6C[C@H](F)C7)nc5c3F)N(CC(F)F)[C@@H](C3CC(C#N)C3)CO4)c12 (stereo partly drawn) [Compound 753, 2-amino-4-((S)-8-chloro-5-(3-cyanocyclobutyl)-4-(2,2-difluoroethyl)-10-fluoro-2-(((2R,7aS)-2-fluorotetrahydro-1H-pyrrolizin-7a(5H)-yl)methoxy)-5,6-dihydro-4H-[1,4]oxazepino[5,6,7-de]quinazolin-9-yl)-7-fluorobenzo[b]thiophene-3-carbonitrile]
< 100 nM: all assays above

N#Cc1c(N)sc2c(F)ccc(-c3c(Cl)c4c5c(nc(OC[C@@]67CCCN6C[C@H](F)C7)nc5c3F)N(C3CCNCC3)CCO4)c12 [Compound 760, 2-amino-4-(8-chloro-10-fluoro-2-(((2R,7aS)-2-fluorotetrahydro-1H-pyrrolizin-7a(5H)-yl)methoxy)-4-(piperidin-4-yl)-5,6-dihydro-4H-[1,4]oxazepino[5,6,7-de]quinazolin-9-yl)-7-fluorobenzo[b]thiophene-3-carbonitrile]
< 100 nM: all assays above

CC(O)C1COc2c(Cl)c(-c3ccc(F)c4sc(N)c(C#N)c34)c(F)c3nc(OC[C@@]45CCCN4C[C@H](F)C5)nc(c23)N1CC1(N(C)C)CCC1 (stereo partly drawn) [Compound 773, 2-amino-4-(8-chloro-4-((1-(dimethylamino)cyclobutyl)methyl)-10-fluoro-2-(((2R,7aS)-2-fluorotetrahydro-1H-pyrrolizin-7a(5H)-yl)methoxy)-5-(1-hydroxyethyl)-5,6-dihydro-4H-[1,4]oxazepino[5,6,7-de]quinazolin-9-yl)-7-fluorobenzo[b]thiophene-3-carbonitrile]
< 100 nM: all assays above

CNCCCN1CCOc2c(Cl)c(-c3ccc(F)c4sc(N)c(C#N)c34)c(F)c3nc(OC[C@@]45CCCN4C[C@H](F)C5)nc1c23 [Compound 778, 2-amino-4-(8-chloro-10-fluoro-2-(((2R,7aS)-2-fluorotetrahydro-1H-pyrrolizin-7a(5H)-yl)methoxy)-4-(3-(methylamino)propyl)-5,6-dihydro-4H-[1,4]oxazepino[5,6,7-de]quinazolin-9-yl)-7-fluorobenzo[b]thiophene-3-carbonitrile]
< 100 nM: all assays above

N#Cc1c(N)sc2c(F)ccc(-c3c(Cl)c4c5c(nc(OC[C@@]67CCCN6C[C@H](F)C7)nc5c3F)N(C3CCCNC3)CCO4)c12 (stereo partly drawn) [Compound 787, 2-amino-4-(8-chloro-10-fluoro-2-(((2R,7aS)-2-fluorotetrahydro-1H-pyrrolizin-7a(5H)-yl)methoxy)-4-(piperidin-3-yl)-5,6-dihydro-4H-[1,4]oxazepino[5,6,7-de]quinazolin-9-yl)-7-fluorobenzo[b]thiophene-3-carbonitrile]
< 100 nM: all assays above

C#C[C@H]1COc2c(Cl)c(-c3ccc(F)c4sc(N)c(C#N)c34)c(F)c3nc(OC[C@@]45CCCN4C[C@H](F)C5)nc(c23)N1CCC(F)F [Compound 788, 2-amino-4-((5S)-8-chloro-4-(3,3-difluoropropyl)-5-ethynyl-10-fluoro-2-(((2R,7aS)-2-fluorotetrahydro-1H-pyrrolizin-7a(5H)-yl)methoxy)-5,6-dihydro-4H-[1,4]oxazepino[5,6,7-de]quinazolin-9-yl)-7-fluorobenzo[b]thiophene-3-carbonitrile]
< 100 nM: all assays above

N#Cc1c(N)sc2c(F)ccc(-c3c(Cl)c4c5c(nc(OC[C@@]67CCCN6C[C@H](F)C7)nc5c3F)N(CC(F)F)C(C3CCN3)CO4)c12 (stereo partly drawn) [Compound 816, 2-amino-4-(5-(azetidin-2-yl)-8-chloro-4-(2,2-difluoroethyl)-10-fluoro-2-(((2R,7aS)-2-fluorotetrahydro-1H-pyrrolizin-7a(5H)-yl)methoxy)-5,6-dihydro-4H-[1,4]oxazepino[5,6,7-de]quinazolin-9-yl)-7-fluorobenzo[b]thiophene-3-carbonitrile]
< 100 nM: all assays above
